The structures appear in SMILES notation.

This test deals with recombinant NL-RLuc virus (NL4-3 derived HIV). As to the kind of experiment: Inhibition of HIV replication (NL-RLuc virus in MT-2 cells, luciferase readout). The conditions noted are these: Human immunodeficiency virus 1, NL43, MT2, 120 h. The test is classed as cell-based. An excerpt: Inhibition of HIV Replication:
A recombinant NL-RLuc proviral clone was constructed in which a section of the nef gene from NL4-3 was replaced with the Renilla Luciferase gene. This virus is fully infectious and can undergo multiple cycles of replication in cell culture. In addition, the luciferous reporter provides a simple and easy method for quantitating the extent of virus growth and consequently, the antiviral activity of test compounds. The plasmid pNLRLuc contains the proviral NL-Rluc DNA cloned into pUC 18 at the PvuII site. The NL-RLuc virus was prepared by transfection of 293T cells with the plasmid pNLRLuc. Transfections were performed using the LipofectAMINE PLUS kit from Invitrogen (Carlsbad, Calif.) according to the manufacturer and the virus generated was titered in MT-2 cells. For susceptibility analyses, the titrated virus was used to infect MT-2 cells in the presence of compound, and after 5 days of incubation, cells were processed and quantitated for virus growth by the amount of expressed luciferase. Assay media was RPMI 1640 supplemented with 10% heat inactivated fetal bovine serum (FBS), 100 units/ml penicillin G/100 units/ml streptomycin, 10 mM HEPES buffer pH 7.55 and 2 mM L-glutamine. The results from at least 2 experiments were used to calculate the EC50 values. Luciferase was quantitated using the Dual Luciferase kit from Promega (Madison, Wis.). Susceptibility of viruses to compounds was determined by incubation in the presence of serial dilutions of the compound. The 50% effective concentration (EC50) was calculated by using the exponential form of the median effect equation where (Fa)=1/[1+(ED50/drug conc.)^m] (Johnson V A, Byington R T. Infectivity Assay. In Techniques in HIV Research. ed. Aldovini A, Walker B D. 71-76. New York: Stockton Press. 1990).
By EC50 is commonly meant the concentration giving half of the maximal effect. On to `Cc1nc(C)c([C@H](OC(C)(C)C)C(=O)O)c(N2CCC(C)(C)CC2)c1-c1ccc2c(c1)CCN(c1nc3ccccc3n1C)C2` [Compound 17, (S)-2-(tert-butoxy)-2-(4-(4,4-dimethylpiperidin-1-yl)-2,6-dimethyl-5-(2-(1-methyl-1H-benzo[d]imidazol-2-yl)-1,2,3,4-tetrahydroisoquinolin-6-yl)pyridin-3-yl)acetic acid], for which the EC50 turned out to be 22 nM.
Under `Cc1nc(C)c([C@H](OC(C)(C)C)C(=O)O)c(N2CCC(C)(C)CC2)c1-c1ccc2c(c1)CCN(c1ncc3cc[nH]c3n1)C2` [Compound 25, (S)-2-(5-(2-(7H-pyrrolo[2,3-d]pyrimidin-2-yl)-1,2,3,4-tetrahydroisoquinolin-6-yl)-4-(4,4-dimethylpiperidin-1-yl)-2,6-dimethylpyridin-3-yl)-2-(tert-butoxy)acetic acid] stands 4 nM.
Under `Cc1nc(C)c([C@H](OC(C)(C)C)C(=O)O)c(N2CCC(C)(C)CC2)c1-c1ccc2c(c1)CCN(c1nc3cnccc3s1)C2` [Compound 11, (S)-2-(tert-butoxy)-2-(4-(4,4-dimethylpiperidin-1-yl)-2,6-dimethyl-5-(2-(thiazolo[4,5-c]pyridin-2-yl)-1,2,3,4-tetrahydroisoquinolin-6-yl)pyridin-3-yl)acetic acid] stands 1 nM; under `Cc1nc(C)c([C@H](OC(C)(C)C)C(=O)O)c(N2CCC(C)(C)CC2)c1-c1ccc2c(c1)CCN(c1nc3c(Cl)cncc3s1)C2` [Compound 3, (S)-2-(tert-butoxy)-2-(5-(2-(7-chlorothiazolo[5,4-c]pyridin-2-yl)-1,2,3,4-tetrahydroisoquinolin-6-yl)-4-(4,4-dimethylpiperidin-1-yl)-2,6-dimethylpyridin-3-yl)acetic acid], 1 nM.
Under `Cc1nc(C)c([C@H](OC(C)(C)C)C(=O)O)c(N2CCC(C)(C)CC2)c1-c1ccc2c(c1)CCN(c1ncnc3cc(C(C)(C)C)sc13)C2` [Compound 28, (S)-2-(tert-butoxy)-2-(5-(2-(6-(tert-butyl)thieno[3,2-d]pyrimidin-4-yl)-1,2,3,4-tetrahydroisoquinolin-6-yl)-4-(4,4-dimethylpiperidin-1-yl)-2,6-dimethylpyridin-3-yl)acetic acid] stands 13 nM; under `Cc1nc(C)c([C@H](OC(C)(C)C)C(=O)O)c(N2CCC(C)(C)CC2)c1-c1ccc2c(c1)CCN(c1ncnc3c(C)csc13)C2` [Compound 15, (S)-2-(tert-butoxy)-2-(4-(4,4-dimethylpiperidin-1-yl)-2,6-dimethyl-5-(2-(7-methylthieno[3,2-d]pyrimidin-4-yl)-1,2,3,4-tetrahydroisoquinolin-6-yl)pyridin-3-yl)acetic acid], 2 nM; under `Cc1nc(C)c([C@H](OC(C)(C)C)C(=O)O)c(N2CCC(C)(C)CC2)c1-c1ccc2c(c1)CCN(c1ncnc3sccc13)C2` [Compound 14, (S)-2-(tert-butoxy)-2-(4-(4,4-dimethylpiperidin-1-yl)-2,6-dimethyl-5-(2-(thieno[2,3-d]pyrimidin-4-yl)-1,2,3,4-tetrahydroisoquinolin-6-yl)pyridin-3-yl)acetic acid], 2 nM.
Turning to `Cc1nc(C)c([C@H](OC(C)(C)C)C(=O)O)c(N2CCC(C)(C)CC2)c1-c1ccc2c(c1)CCN(c1ncnc3cc[nH]c13)C2` [Compound 22, (S)-2-(5-(2-(5H-pyrrolo[3,2-d]pyrimidin-4-yl)-1,2,3,4-tetrahydroisoquinolin-6-yl)-4-(4,4-dimethylpiperidin-1-yl)-2,6-dimethylpyridin-3-yl)-2-(tert-butoxy)acetic acid], the EC50 came out at 286 nM.
For `Cc1nc(C)c([C@H](OC(C)(C)C)C(=O)O)c(N2CCC(C)(C)CC2)c1-c1ccc2c(c1)CCN(c1nc3ccccc3s1)C2` [Compound 13, (S)-2-(5-(2-(benzo[d]thiazol-2-yl)-1,2,3,4-tetrahydroisoquinolin-6-yl)-4-(4,4-dimethylpiperidin-1-yl)-2,6-dimethylpyridin-3-yl)-2-(tert-butoxy)acetic acid], the EC50 came to 7 nM.
Turning to `Cc1nc(C)c([C@H](OC(C)(C)C)C(=O)O)c(N2CCC(C)(C)CC2)c1-c1ccc2c(c1)CCN(c1nc3ncc(C(F)(F)F)cc3s1)C2` [Compound 1, (S)-2-(tert-butoxy)-2-(4-(4,4-dimethylpiperidin-1-yl)-2,6-dimethyl-5-(2-(6-(trifluoromethyl)thiazolo[4,5-b]pyridin-2-yl)-1,2,3,4-tetrahydroisoquinolin-6-yl)pyridin-3-yl)acetic acid], the EC50 came out at 3 nM.
For `COc1nc(N2CCc3cc(-c4c(C)nc(C)c([C@H](OC(C)(C)C)C(=O)O)c4N4CCC(C)(C)CC4)ccc3C2)c2cc[nH]c2n1` [Compound 27, (S)-2-(tert-butoxy)-2-(4-(4,4-dimethylpiperidin-1-yl)-5-(2-(2-methoxy-7H-pyrrolo[2,3-d]pyrimidin-4-yl)-1,2,3,4-tetrahydroisoquinolin-6-yl)-2,6-dimethylpyridin-3-yl)acetic acid], the EC50 stood at 2 nM.
Regarding `Cc1nc(C)c([C@H](OC(C)(C)C)C(=O)O)c(N2CCC(C)(C)CC2)c1-c1ccc2c(c1)CCN(c1noc3ccccc13)C2` [Compound 18, (S)-2-(5-(2-(benzo[d]isoxazol-3-yl)-1,2,3,4-tetrahydroisoquinolin-6-yl)-4-(4,4-dimethylpiperidin-1-yl)-2,6-dimethylpyridin-3-yl)-2-(tert-butoxy)acetic acid], the EC50 is 5 nM.
Under `Cc1nc(C)c([C@H](OC(C)(C)C)C(=O)O)c(N2CCC(C)(C)CC2)c1-c1ccc2c(c1)CCN(c1ncnc3c1cnn3C)C2` [Compound 16, (S)-2-(tert-butoxy)-2-(4-(4,4-dimethylpiperidin-1-yl)-2,6-dimethyl-5-(2-(1-methyl-1H-pyrazolo[3,4-d]pyrimidin-4-yl)-1,2,3,4-tetrahydroisoquinolin-6-yl)pyridin-3-yl)acetic acid] stands 2 nM; under `Cc1ccc2nc(N3CCc4cc(-c5c(C)nc(C)c([C@H](OC(C)(C)C)C(=O)O)c5N5CCC(C)(C)CC5)ccc4C3)sc2c1` [Compound 9, (S)-2-(tert-butoxy)-2-(4-(4,4-dimethylpiperidin-1-yl)-2,6-dimethyl-5-(2-(6-methylbenzo[d]thiazol-2-yl)-1,2,3,4-tetrahydroisoquinolin-6-yl)pyridin-3-yl)acetic acid], 8 nM; under `Cc1ccc2sc(N3CCc4cc(-c5c(C)nc(C)c([C@H](OC(C)(C)C)C(=O)O)c5N5CCC(C)(C)CC5)ccc4C3)nc2c1` [Compound 6, (S)-2-(tert-butoxy)-2-(4-(4,4-dimethylpiperidin-1-yl)-2,6-dimethyl-5-(2-(5-methylbenzo[d]thiazol-2-yl)-1,2,3,4-tetrahydroisoquinolin-6-yl)pyridin-3-yl)acetic acid], 22 nM.
Regarding `COc1ccc2nc(N3CCc4cc(-c5c(C)nc(C)c([C@H](OC(C)(C)C)C(=O)O)c5N5CCC(C)(C)CC5)ccc4C3)sc2c1` [Compound 12, (S)-2-(tert-butoxy)-2-(4-(4,4-dimethylpiperidin-1-yl)-5-(2-(6-methoxybenzo[d]thiazol-2-yl)-1,2,3,4-tetrahydroisoquinolin-6-yl)-2,6-dimethylpyridin-3-yl)acetic acid], the EC50 turned out to be 4 nM.

(Values after patent US10577353B2, “5-(n-[6,5]-fused bicyclic aryl tetrahydroisoquinolin-6-yl) pyridin-3-yl acetic acid derivatives as inhibitors of human immunodeficiency virus replication” (priority 2015, dated 2020).)
